Reference: the supplement of paper PMC9763283

Assays:
Experiment in all cases: area under growth-rate inhibition curve (AUC GRI) (dimensionless (GR-based AUC)); higher = less growth inhibition
Settings in all cases: exposure time: 72 h; concentrations: 0.1, 1, 10 uM
BT474-LTR = test system: BT474-LTR
In short: (§1)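 The area under the growth-rate inhibition curve was measured in six breast cancer cell line models, covering triple-negative lines and HER2+ lines, both parental and resistant to a two-drug combination. Cells were exposed to compound at 0.1, 1 or 10 µM for 72 h, fixed in 4% paraformaldehyde, and nuclei were stained with Hoechst 33342 or DAPI for imaging and counting. Day 0 plates, untreated Day 3 plates and DMSO controls served to correct growth across 2 biological replicates.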

BT474-P = test system: BT474-P
In short: as §1

MDA-MB-231 = test system: MDA-MB-231
In short: as §1

MDA-MB-468 = test system: MDA-MB-468
In short: as §1

SKBR3-LTR = test system: SKBR3-LTR
In short: as §1

SKBR3-P = test system: SKBR3-P
In short: as §1

Row | Compound | area under growth-rate inhibition curve (BT474-LTR) | area under growth-rate inhibition curve (BT474-P) | area under growth-rate inhibition curve (MDA-MB-231) | area under growth-rate inhibition curve (MDA-MB-468) | area under growth-rate inhibition curve (SKBR3-LTR) | area under growth-rate inhibition curve (SKBR3-P)
1 | CCOC(=O)C1(c2ccccc2)CCN(C)CC1 [meperidine] | 1.04 | 0.992 | 1.04 | 1.04 | 1.06 | 1.02
2 | CC(=O)OCC(=O)NCCCOc1cccc(CN2CCCCC2)c1.[Cl-].[H+] [Roxatidine Acetate HCl] | 1.07 | 1.04 | 1.03 | 1.02 | 1.04 | 0.991
3 | COc1ccccc1N1CCN(CCN2C(=O)CC3(CCCC3)CC2=O)CC1.[Cl-].[Cl-].[H+].[H+] [BMY 7378] | 1.11 | 1.03 | 1.03 | 1.02 | 1.1 | 0.982
4 | CC(C)(Cc1ccc2ccccc2c1)NC[C@@H](O)COc1cccc(Cl)c1C#N [NPS-2143] | 0.815 | 0.808 | 0.874 | 0.817 | 0.794 | 0.833
5 | CN(C)C(=O)Oc1ccc[n+](C)c1.[Br-] [Pyridostigmine Bromide] | 1.07 | 1.04 | 1.05 | 1.03 | 1.04 | 0.997
6 | CN1CCN(C(c2ccccc2)c2ccccc2)CC1.[Cl-].[Cl-].[H+].[H+] [Cyclizine 2HCl] | 1.07 | 1.03 | 1.03 | 1.02 | 1 | 1.01
7 | CC[C@@H](CO)NC(=O)[C@@H]1C=C2c3cccc4[nH]cc(c34)C[C@H]2N(C)C1.O=C(O)/C=C\C(=O)O [Methylergometrine maleate] | 1.05 | 1.01 | 1.03 | 1.06 | 1.05 | 1.04
8 | CNCCCN1c2ccccc2CCc2ccccc21.Cl [Desipramine hydrochloride] | 0.997 | 0.985 | 1.03 | – | 1.06 | –
9 | CN[C@H](CC(=O)O)C(=O)O [NMDA (N-Methyl-D-aspartic acid)] | 1.09 | 1.08 | 1.04 | 1.04 | 1.08 | 1.07
10 | COCCCN1CCC(NC(=O)c2cc(Cl)c(N)c3c2OCC3)CC1 [Prucalopride] | 1.07 | 1.02 | 1.05 | 1.04 | 1.06 | 1.01
11 | O=S(=O)(c1ccccc1)c1cnc2c(N3CCNCC3)cccc2c1 | 1.08 | 0.99 | 1.03 | 1.01 | 1.05 | 0.997
12 | COc1ccc(OC)c(C(O)C(C)N)c1 (stereo unspecified) [methoxamine] | 1.07 | 1.01 | 1.05 | 1.05 | 1.04 | 1.05
13 | CCCCOc1ccc(C(=O)Nc2ccc(F)cc2F)cc1 | 1.06 | 1.02 | 1.02 | 1.01 | 1.05 | 1.01
14 | CCN(CC)CC#CCOC(=O)C(O)(c1ccccc1)C1CCCCC1.[Cl-].[H+] (stereo unspecified) [Oxybutynin chloride] | 1.1 | 1.02 | 1.04 | 0.992 | 1.04 | 0.999
15 | CCOC(=O)[C@H](CCc1ccccc1)N[C@H]1CCCN2CCC[C@@H](C(=O)O)N2C1=O.O [Cilazapril Monohydrate] | 1.1 | 1.04 | 1.03 | 1.04 | 1.07 | 1.04
16 | C[C@]12N[C@H](Cc3ccccc31)c1ccccc12 [MK-801 (Dizocilpine)] | 1.09 | 1.03 | 1.03 | 1.05 | 1.06 | 0.998
17 | CN1CCCCC1Cn1cc(C(=O)c2cc([N+](=O)[O-])ccc2I)c2ccccc21 (stereo unspecified) [AM1241] | 1 | 0.977 | 0.987 | 0.972 | 1.02 | 0.998
18 | CN1CCN(C2=Nc3cc(Cl)ccc3Nc3ccccc32)CC1 [Clozapine] | 1.09 | 1.06 | 1.04 | 1.03 | 1.07 | 1.01
19 | CNCC(O)c1ccc(O)cc1 (stereo unspecified) [Synephrine] | 1.06 | 1.05 | 0.993 | 1.05 | 1.07 | 1.03
20 | CC(NCCc1ccc(O)cc1)C(O)c1ccc(O)cc1.[Cl-].[H+] (stereo unspecified) [Ritodrine HCl] | 1.1 | 1.07 | 0.975 | 1.01 | 1.11 | 1.02
21 | CN(C)CCC[C@@]1(c2ccc(F)cc2)OCc2cc(C#N)ccc21.O=C(O)C(=O)O [Escitalopram Oxalate] | 1.1 | 1.03 | 1.02 | 1.02 | 1.02 | 0.985
22 | CC(=O)O[C@]1(C(C)=O)CC[C@H]2[C@@H]3C[C@H](C)C4=CC(=O)CC[C@]4(C)[C@H]3CC[C@@]21C [Medroxyprogesterone acetate] | 1.02 | 0.945 | 1.03 | 1 | 1.01 | 0.953
23 | CN1CCN2c3ccccc3Cc3ccccc3C2C1.[Cl-].[H+] (stereo unspecified) [Mianserin HCl] | 1.12 | 1.07 | 1.03 | 1.06 | 1.09 | 1.02
24 | C=CCN1CC[C@]23c4c5ccc(O)c4O[C@H]2C(=O)CC[C@@]3(O)[C@H]1C5.[Cl-].[H+] [Naloxone HCl] | 1.08 | 1.05 | 1.04 | 1.02 | 1.05 | 1.03
25 | CC(C)C(=O)Oc1ccc(CO)cc1[C@H](CCN(C(C)C)C(C)C)c1ccccc1.O=C(O)/C=C/C(=O)O [Fesoterodine Fumarate] | 1 | 0.994 | 1.01 | 1.01 | 0.961 | 0.973
26 | O=c1ncnc2[nH][nH]cc1-2 [Allopurinol] | 1.1 | 1.06 | 1.03 | 1.06 | 1.07 | 1.03

Row | Compound | area under growth-rate inhibition curve (BT474-LTR) | area under growth-rate inhibition curve (BT474-P) | area under growth-rate inhibition curve (MDA-MB-231) | area under growth-rate inhibition curve (MDA-MB-468) | area under growth-rate inhibition curve (SKBR3-LTR) | area under growth-rate inhibition curve (SKBR3-P)
27 | COc1cc2nc(N(C)CCCNC(=O)C3CCCO3)nc(N)c2cc1OC.[Cl-].[H+] (stereo unspecified) [Alfuzosin HCl] | 1.09 | 1.03 | – | – | – | 1.01
28 | O=C(O)CCCN1CCC(OC(c2ccc(Cl)cc2)c2ccccn2)CC1.O=S(=O)(O)c1ccccc1 (stereo unspecified) [Bepotastine Besilate] | 1.09 | 1.03 | 1.03 | 1.03 | 1.06 | 0.992
29 | CCC1(c2ccccc2)C(=O)NCNC1=O [Primidone] | 1.02 | 0.982 | 1.04 | 1.03 | 1.06 | 1.03
30 | COc1cc2nc(N3CCN(C(=O)C4COc5ccccc5O4)CC3)nc(N)c2cc1OC.CS(=O)(=O)O (stereo unspecified) [Doxazosin Mesylate] | 1.07 | 0.991 | 0.99 | 0.966 | 1.03 | 0.958
31 | Br.CN1C2CC(OC(=O)C(CO)c3ccccc3)CC1C1OC12 (stereo unspecified) [Scopolamine HBr] | 1.08 | 1.05 | 1.03 | 1.04 | 1.09 | 1.01
32 | CC(C)(C(=O)O)c1ccc(C(O)CCCN2CCC(C(O)(c3ccccc3)c3ccccc3)CC2)cc1.[Cl-].[H+] (stereo unspecified) [Fexofenadine HCl] | 1.01 | 1.03 | 1 | 1.03 | 1.01 | 1.03
33 | CN/C(=C\[N+](=O)[O-])NCCSCc1ccc(CN(C)C)o1 [Ranitidine] | 1.1 | 1.07 | 1.01 | 1.04 | 1.03 | 1.03
34 | Cc1c(-c2ccc(O)cc2)n(Cc2ccc(OCCN3CCCCCC3)cc2)c2ccc(O)cc12.[Cl-].[H+] [Bazedoxifene HCl] | 0.949 | 0.755 | 0.9 | 0.898 | 0.944 | 0.956
35 | Cc1cccc(Cc2cnc[nH]2)c1C.Cl [Detomidine HCl] | 1.04 | 1.01 | 1.03 | 1.02 | 1.08 | 0.991
36 | C[C@H]1CNCCc2ccc(Cl)cc21.[Cl-].[H+] [Lorcaserin HCl] | 1.09 | 1.06 | 1.02 | 1.03 | 1.03 | 1.03
37 | O=C1CCCC2C3CCCN4CCCC(CN12)C34 (single isomer, unassigned; (+)) [(+)-Matrine] | 1.08 | 1.06 | 1.03 | 1.01 | 1.09 | 1.02
38 | C[NH+]1CCC[C@@H]1CCO[C@](C)(c1ccccc1)c1ccc(Cl)cc1.O=C([O-])/C=C/C(=O)O [Clemastine Fumarate] | 1.02 | 0.941 | 1.02 | 0.932 | 0.958 | 0.898
39 | COS(=O)(=O)[O-].C[N+]1(C)CCC(=C(c2ccccc2)c2ccccc2)CC1 [Diphemanil Methylsulfate] | 1.03 | 1.05 | 1.03 | 1.01 | 1.03 | 0.971
40 | CC[N+](CC)(CC)CCOc1cccc(OCC[N+](CC)(CC)CC)c1OCC[N+](CC)(CC)CC.[I-].[I-].[I-] [Gallamine Triethiodide] | 1.08 | 1.02 | 1.03 | 1.01 | 1.03 | 1
41 | CC(=O)OCC[N+](C)(C)C.[Cl-] [Acetylcholine Chloride] | 1.09 | 1.03 | 1.04 | 1.04 | 1.05 | 1.02
42 | COc1ccccc1N1CCN(CC(O)COc2cccc3ccccc23)CC1 (stereo unspecified) [Naftopidil] | 1.08 | 1.01 | 1.04 | 1.02 | 1.07 | 1
43 | CC1(C)C[C@@H]1C(=O)N/C(=C\CCCCSC[C@H](N)C(=O)O)C(=O)[O-].[Na+] [Cilastatin sodium] | 1.05 | 1.03 | 1 | 1.02 | 1.03 | 1.01
44 | NCCCCC1NC(=O)C(Cc2c[nH]c3ccccc23)NC(=O)C(c2ccccc2)NC(=O)C2CC(OC(=O)NCCN)CN2C(=O)C(Cc2ccccc2)NC(=O)C(Cc2ccc(OCc3ccccc3)cc2)NC1=O (stereo unspecified) [Pasireotide] | 1.04 | 1.02 | 1.03 | 1.03 | 1.05 | 1.03
45 | N#Cc1cc2cc(CN3CCC(Nc4ncnc5sc(CC(F)(F)F)cc45)CC3)ccc2[nH]1 [MI-136] | 0.906 | 0.833 | 0.931 | 0.834 | 1.01 | 0.895
46 | Oc1c(Cl)cc(Cl)cc1Sc1cc(Cl)cc(Cl)c1O [Bithionol] | 1.06 | 0.999 | 1.03 | 0.985 | 1.02 | 1.01
47 | CC(C)NCC(O)COc1ccc(CCOCC2CC2)cc1.[Cl-].[H+] (stereo unspecified) [Betaxolol] | 1.07 | 1.01 | 1.05 | 1.01 | 1.07 | 0.996
48 | Cc1cccc(C#Cc2ccccc2)n1 [MPEP] | 1.1 | 1.03 | 1.05 | 1.03 | 1.05 | 0.999
49 | CC(C)COc1ccc(CNC(=O)N(Cc2ccc(F)cc2)C2CCN(C)CC2)cc1 [Pimavanserin] | 0.936 | 0.873 | 0.867 | 0.887 | 0.876 | 0.856
50 | CC(=O)[C@@]1(O)CC[C@H]2[C@@H]3CCC4=CC(=O)CC[C@]4(C)[C@H]3CC[C@@]21C [17-Hydroxyprogesterone] | 1.07 | 1.02 | 1.02 | 1 | 1.03 | 1
51 | C=CCN1CC(C(=O)N(CCCN(C)C)C(=O)NCC)CC2c3cccc4[nH]cc(c34)CC21 (stereo unspecified) [Cabergoline] | 1.05 | 1.01 | 1.04 | 1.05 | 1.05 | 1.03
52 | CCCCC(=O)N(Cc1ccc(-c2ccccc2-c2nnn[nH]2)cc1)[C@H](C(=O)O)C(C)C [Valsartan] | 1.02 | 0.974 | 1.04 | 1.04 | – | 1.02
